Tests used:
PI3K p110α/p85 = target: T1, PI3K p110α/p85 (Homo sapiens, UniProt P42336); assay: PI3K assay ([γ33P]ATP, PtdIns/PtdSer coated plates); format: biochemical; conditions: 2 μM ATP, 1 hour at RT; read-out: IC50 (PI3Kα)
T1 construct: made in house
Method: Recombinant PI3K p110α/p85 was prepared in-house. Phosphatidylinositol (PtdIns), phosphotidylserine (PtdSer) and all other unspecified chemicals were purchased from Sigma-Aldrich. [γ^33P]ATP and Optiphase scintillant were obtained from Perkin Elmer.
Assays were performed in a final assay volume of 25 μL in 384-well Maxisorp plates (Nunc). Compounds were tested at 8 concentrations in 3-fold serial dilution, generally starting from 10 μM. Maxisorp plates were coated with 20 μL/well of a 1:1 mixture of PtdIns and PtdSer [0.1 mg/mL each dissolved in chloroform:ethanol (3:7)] and left overnight in a fume hood at room temperature (RT) to dry.
The enzyme reaction was created by pipetting 5 μL/well of compound (in 2.5% DMSO), 10 μL/well of enzyme (0.5 μg/mL p110α+1 μg/mL p85), and 10 μL/well of 5 μM ATP with 5 μCi/mL [γ^33P]ATP in assay buffer (final concentrations: 0.2 μg/mL p110α, 2 μM ATP, […] [γ^33P]ATP in 1× assay buffer: 100 mM Tris-HCl pH 7.0, 200 mM NaCl, 8 mM MgCl2). The reaction was incubated for 1 hour at RT and terminated with 30 μL/well of 50 mM EDTA solution. The plate was then washed twice with TBS, dried, and added with 30 μL/well of scintillant before it was counted in a MicroBeta Trilux.

mTOR = mTOR (Homo sapiens, UniProt P42345); assay: mTOR assay (phosphorylation of 4eBP1, [γ33P]-ATP filter plate); format: biochemical; conditions: 10 μM ATP, 1 hour at room temperature
Method: Truncated mTOR kinase and His-tagged 4eBP1 were produced in-house. [γ^33P]-ATP was purchased from Amersham (GE Healthcare). All chemicals, unless otherwise stated, were from Sigma-Aldrich.
Phosphorylation assays were initially performed in a final volume of 20 μL in 384-well polypropylene plate (Greiner). Compounds were typically tested over the range from 100 μM to 0.006 μM, in 8 step dilutions, in duplicate. 10 μL/well of 2× Enzyme-Substrate solution (1.5 μg/mL mTOR, 40 μg/mL 4eBP1 in 1× assay buffer: 10 mM Hepes pH 7.5, 50 mM NaCl and 10 mM MnCl2) were first added to the sample plate containing 1 μL/well of test compound in neat DMSO. The reaction was initiated by adding 10 μL/well of 20 μM ATP solution (final assay concentration 10 μM ATP and 0.4 μCi/well of [γ^33P]-ATP). After 1 hour incubation at room temperature, the reaction was terminated with 40 μL/well of 20 mM EDTA/1 mM ATP solution.
50 μL/well of the stopped reaction mix was then transferred to 384-well MultiScreenHTS-PH filter plate (Millipore) pre-added with 50 μL/well of 1% phosphoric acid. The plate was washed 4 times with 120 μL/well of 0.5% phosphoric acid via vacuum filtration. Finally, 10 μL/well of Optiphase™ SuperMix liquid scintillation cocktail (Perkin Elmer) was added. After minimum 1 hour of incubation, counting was performed in a Wallac MicroBeta TriLux scintillation counter using coincidence counting mode with crosstalk correction.

T1 sequence (P42336 whole entry): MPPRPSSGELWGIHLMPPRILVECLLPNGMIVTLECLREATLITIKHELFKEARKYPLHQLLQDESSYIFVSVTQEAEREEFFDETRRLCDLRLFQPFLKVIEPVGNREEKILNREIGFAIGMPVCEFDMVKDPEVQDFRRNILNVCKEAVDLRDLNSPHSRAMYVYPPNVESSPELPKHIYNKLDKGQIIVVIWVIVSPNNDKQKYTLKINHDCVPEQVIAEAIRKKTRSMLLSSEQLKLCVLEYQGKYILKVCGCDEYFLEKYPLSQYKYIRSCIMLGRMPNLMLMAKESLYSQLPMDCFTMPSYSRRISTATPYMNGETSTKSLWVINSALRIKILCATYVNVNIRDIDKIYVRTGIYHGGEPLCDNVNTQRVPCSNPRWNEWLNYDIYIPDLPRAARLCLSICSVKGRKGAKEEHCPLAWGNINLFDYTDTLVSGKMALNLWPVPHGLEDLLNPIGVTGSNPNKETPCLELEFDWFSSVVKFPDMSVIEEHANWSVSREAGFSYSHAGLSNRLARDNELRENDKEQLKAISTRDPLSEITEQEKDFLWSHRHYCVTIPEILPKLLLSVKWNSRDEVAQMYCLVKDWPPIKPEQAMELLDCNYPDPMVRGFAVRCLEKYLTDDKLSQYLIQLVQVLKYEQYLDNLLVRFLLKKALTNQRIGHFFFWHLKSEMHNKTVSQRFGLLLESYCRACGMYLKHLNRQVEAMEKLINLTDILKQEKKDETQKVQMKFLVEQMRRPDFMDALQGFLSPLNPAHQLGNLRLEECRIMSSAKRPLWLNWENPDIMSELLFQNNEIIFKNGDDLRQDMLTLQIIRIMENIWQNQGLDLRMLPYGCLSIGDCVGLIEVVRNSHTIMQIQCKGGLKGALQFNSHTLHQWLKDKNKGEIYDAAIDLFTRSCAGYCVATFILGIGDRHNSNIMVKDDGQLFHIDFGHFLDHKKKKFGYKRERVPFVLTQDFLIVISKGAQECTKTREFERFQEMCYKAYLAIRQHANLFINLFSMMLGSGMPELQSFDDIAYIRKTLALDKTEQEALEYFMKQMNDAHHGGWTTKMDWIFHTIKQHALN
T1 sequence (P27986 whole entry partner): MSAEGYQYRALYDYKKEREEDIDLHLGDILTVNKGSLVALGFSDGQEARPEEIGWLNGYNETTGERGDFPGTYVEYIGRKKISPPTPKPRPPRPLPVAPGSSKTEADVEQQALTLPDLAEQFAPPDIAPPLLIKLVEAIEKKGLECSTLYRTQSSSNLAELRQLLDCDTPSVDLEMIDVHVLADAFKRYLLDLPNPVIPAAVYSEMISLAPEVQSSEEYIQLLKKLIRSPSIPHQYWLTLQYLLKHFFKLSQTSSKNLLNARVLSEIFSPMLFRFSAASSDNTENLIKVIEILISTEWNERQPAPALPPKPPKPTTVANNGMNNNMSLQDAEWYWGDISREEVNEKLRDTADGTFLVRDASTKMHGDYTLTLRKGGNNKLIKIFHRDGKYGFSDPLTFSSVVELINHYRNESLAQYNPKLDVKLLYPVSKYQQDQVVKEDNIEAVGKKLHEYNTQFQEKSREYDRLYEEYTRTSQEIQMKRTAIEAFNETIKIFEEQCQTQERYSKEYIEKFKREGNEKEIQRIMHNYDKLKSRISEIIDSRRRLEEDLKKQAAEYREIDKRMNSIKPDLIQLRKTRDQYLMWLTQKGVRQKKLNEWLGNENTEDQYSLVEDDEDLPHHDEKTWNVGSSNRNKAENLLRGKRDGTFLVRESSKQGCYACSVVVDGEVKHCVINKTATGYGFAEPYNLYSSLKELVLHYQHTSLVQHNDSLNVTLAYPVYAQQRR
Sequence of mTOR (P42345 1382-2549 limits assumed): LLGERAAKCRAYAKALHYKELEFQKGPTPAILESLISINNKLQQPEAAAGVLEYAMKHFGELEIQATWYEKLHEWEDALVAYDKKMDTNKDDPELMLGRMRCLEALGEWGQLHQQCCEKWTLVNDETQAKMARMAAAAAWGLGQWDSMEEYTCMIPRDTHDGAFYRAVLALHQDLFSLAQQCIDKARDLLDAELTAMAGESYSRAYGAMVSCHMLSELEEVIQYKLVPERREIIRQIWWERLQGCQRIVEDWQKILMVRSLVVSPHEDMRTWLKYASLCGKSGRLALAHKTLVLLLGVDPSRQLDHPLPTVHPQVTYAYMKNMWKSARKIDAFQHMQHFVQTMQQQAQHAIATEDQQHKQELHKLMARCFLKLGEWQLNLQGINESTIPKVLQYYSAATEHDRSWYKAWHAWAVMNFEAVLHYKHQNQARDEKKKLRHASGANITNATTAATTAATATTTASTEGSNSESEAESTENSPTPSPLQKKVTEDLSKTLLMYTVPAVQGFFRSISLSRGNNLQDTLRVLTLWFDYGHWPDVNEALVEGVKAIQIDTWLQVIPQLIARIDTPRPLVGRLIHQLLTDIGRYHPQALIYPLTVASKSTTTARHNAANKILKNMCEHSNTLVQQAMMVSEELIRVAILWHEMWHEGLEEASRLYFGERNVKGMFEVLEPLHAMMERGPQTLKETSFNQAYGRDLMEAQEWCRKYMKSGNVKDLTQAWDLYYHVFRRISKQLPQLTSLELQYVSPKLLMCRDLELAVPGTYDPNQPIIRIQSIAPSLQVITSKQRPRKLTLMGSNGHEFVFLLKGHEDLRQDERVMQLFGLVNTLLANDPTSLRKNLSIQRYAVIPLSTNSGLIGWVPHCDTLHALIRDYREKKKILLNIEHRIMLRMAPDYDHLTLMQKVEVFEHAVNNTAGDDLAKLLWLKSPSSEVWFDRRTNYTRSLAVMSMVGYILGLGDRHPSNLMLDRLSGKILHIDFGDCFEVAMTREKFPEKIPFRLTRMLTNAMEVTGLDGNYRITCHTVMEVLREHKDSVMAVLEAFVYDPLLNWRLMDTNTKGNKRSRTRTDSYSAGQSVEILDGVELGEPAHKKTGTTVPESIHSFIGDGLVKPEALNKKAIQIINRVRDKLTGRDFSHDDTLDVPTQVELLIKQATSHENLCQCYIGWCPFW

SMILES | IC50 (PI3K p110α/p85) | IC50 (mTOR)
OCc1cccc(-c2nc(N3CCOCC3)nc3c2ncn3Cc2ccccc2)c1 [Compound 1] | < 1000 nM | 1000 to 5000 nM
Oc1cc(F)cc(-c2nc(N3CCOCC3)nc3c2ncn3Cc2ccccc2)c1 [Compound 3] | < 1000 nM | < 1000 nM
Oc1ccc(-c2nc(N3CCOCC3)nc3c2ncn3Cc2ccccc2)cc1 [Compound 5] | > 5000 nM | 1000 to 5000 nM
c1ccc(Cn2cnc3c(-c4ccc5cc[nH]c5c4)nc(N4CCOCC4)nc32)cc1 [Compound 6] | > 5000 nM | > 5000 nM
Oc1cccc(-c2nc(N3CCOCC3)nc3c2ncn3Cc2c(F)cccc2F)c1 [Compound 7] | < 1000 nM | < 1000 nM
COCCn1cnc2c(-c3ccc4cc[nH]c4c3)nc(N3CCOCC3)nc21 [Compound 10, 6-(1H-Indol-6-yl)-9-(2-methoxy-ethyl)-2-morpholin-4-yl-9H-purine] | > 5000 nM | 1000 to 5000 nM
COCCn1cnc2c(-c3cccc(O)c3)nc(N3CCOCC3)nc21 [Compound 11, 3-[9-(2-Methoxy-ethyl)-2-morpholin-4-yl-9H-purin-6-yl]-phenol] | < 1000 nM | < 1000 nM
Oc1cccc(-c2nc(N3CCOCC3)nc3c2ncn3Cc2cccc(OC(F)(F)F)c2)c1 [Compound 12] | > 5000 nM | 1000 to 5000 nM
COc1cc(Cn2cnc3c(-c4cccc(O)c4)nc(N4CCOCC4)nc32)cc(OC)c1 [Compound 14] | < 1000 nM | < 1000 nM
COc1cccc(Cn2cnc3c(-c4ccc5cc[nH]c5c4)nc(N4CCOCC4)nc32)c1 [Compound 18] | > 5000 nM | 1000 to 5000 nM
c1cc2ccc(-c3nc(N4CCOCC4)nc4c3ncn4CC3CC3)cc2[nH]1 [Compound 21] | > 5000 nM | < 1000 nM
C=CCCn1cnc2c(-c3ccc4cc[nH]c4c3)nc(N3CCOCC3)nc21 [Compound 23] | > 5000 nM | 1000 to 5000 nM
CCOC(=O)CCn1cnc2c(-c3cccc(O)c3)nc(N3CCOCC3)nc21 [Compound 24] | – | < 1000 nM
CCOC(=O)CCn1cnc2c(-c3ccc4cc[nH]c4c3)nc(N3CCOCC3)nc21 [Compound 25] | – | 1000 to 5000 nM
c1ccc(Cn2cnc3c(-c4ccc5nc[nH]c5c4)nc(N4CCOCC4)nc32)cc1 [Compound 28] | 1000 to 5000 nM | 1000 to 5000 nM
Nc1cccc(-c2nc(N3CCOCC3)nc3c2ncn3Cc2ccccc2)c1 [Compound 29] | > 5000 nM | 1000 to 5000 nM
Oc1cccc(-c2nc(N3CCOCC3)nc3c2ncn3Cc2cc(F)cc(F)c2)c1 [Compound 37] | < 1000 nM | < 1000 nM

SMILES | IC50 (PI3K p110α/p85) | IC50 (mTOR)
Nc1ccc(-c2nc(N3CCOCC3)nc3c2ncn3Cc2ccccc2)cc1N [Compound 38] | > 5000 nM | 1000 to 5000 nM
c1ccc(Cn2cnc3c(-c4ccc5nn[nH]c5c4)nc(N4CCOCC4)nc32)cc1 [Compound 39] | 1000 to 5000 nM | 1000 to 5000 nM
O=c1[nH]c2ccc(-c3nc(N4CCOCC4)nc4c3ncn4Cc3ccccc3)cc2[nH]1 [Compound 40] | > 5000 nM | > 5000 nM
Oc1cccc(-c2nc(N3CCOCC3)nc3c2ncn3CCOc2ccccc2)c1 [Compound 44] | < 1000 nM | < 1000 nM
Oc1cccc(-c2nc(N3CCOCC3)nc3c2ncn3C/C=C/c2ccccc2)c1 [Compound 45] | – | < 1000 nM
Fc1cccc(Cn2cnc3c(-c4ccc5[nH]ccc5c4)nc(N4CCOCC4)nc32)c1 [Compound 47] | > 5000 nM | 1000 to 5000 nM
Oc1cccc(-c2nc(N3CCOCC3)nc3[nH]cnc23)c1 [Compound 48] | – | 1000 to 5000 nM
C#CCn1cnc2c(-c3cccc(O)c3)nc(N3CCOCC3)nc21 [Compound 53] | < 1000 nM | < 1000 nM
CC(=O)Nc1cccc(-c2nc(N3CCOCC3)nc3c2ncn3-c2ccccc2)c1 [Compound 56] | > 5000 nM | > 5000 nM
Oc1cccc(-c2nc(N3CCOCC3)nc3c2ncn3C2CCCCO2)c1 (stereo not shown) [Compound 57] | < 1000 nM | < 1000 nM
c1ccc(Cn2cnc3c(-c4ccc5[nH]ccc5c4)nc(N4CCOCC4)nc32)cc1 [Compound 58] | > 5000 nM | 1000 to 5000 nM
CC(C)(C)OC(=O)N1CCC(n2cnc3c(-c4cccc(O)c4)nc(N4CCOCC4)nc32)CC1 [Compound 71] | – | < 1000 nM
CCOC(=O)Cn1cnc2c(-c3cccc(O)c3)nc(N3CCOCC3)nc21 [Compound 74, ethyl-2-(6-(3-hydroxyphenyl)-2-morpholino-9H-purin-9-yl)acetate] | – | < 1000 nM
Oc1cccc(-c2nc(N3CCOCC3)nc3c2ncn3C2CCNCC2)c1 [Compound 85] | – | < 1000 nM
CC(C)(C)OC(=O)N1CCC(n2cnc3c(-c4cccc(O)c4)nc(N4CCOCC4)nc32)CC1 [Compound 86] | < 1000 nM | –
CC(C)C(C)n1cnc2c(-c3cccc(O)c3)nc(N3CCOCC3)nc21 (stereo not shown) [Compound 100] | – | < 1000 nM

Results, then the molecule that gave them:

IC50 (PI3K p110α/p85) | IC50 (mTOR) | SMILES
> 5000 nM | > 5000 nM | CC(=O)Nc1cccc(-c2nc(N3CCOCC3)nc3c2ncn3Cc2ccccc2)c1 [Compound 4]
< 1000 nM | < 1000 nM | N#Cc1cccc(Cn2cnc3c(-c4cccc(O)c4)nc(N4CCOCC4)nc32)c1 [Compound 9]
< 1000 nM | 1000 to 5000 nM | COC(=O)c1ccc(Cn2cnc3c(-c4cccc(O)c4)nc(N4CCOCC4)nc32)cc1 [Compound 13]
< 1000 nM | < 1000 nM | Oc1cccc(-c2nc(N3CCOCC3)nc3c2ncn3Cc2cccc(F)c2)c1 [Compound 15]
< 1000 nM | < 1000 nM | COc1cccc(Cn2cnc3c(-c4cccc(O)c4)nc(N4CCOCC4)nc32)c1 [Compound 17]
< 1000 nM | < 1000 nM | O=[N+]([O-])c1ccc(Cn2cnc3c(-c4cccc(O)c4)nc(N4CCOCC4)nc32)cc1 [Compound 19, 3-[2-Morpholin-4-yl-9-(4-nitro-benzyl)-9H-purin-6-yl]-phenol]
< 1000 nM | < 1000 nM | Nc1ccc(Cn2cnc3c(-c4cccc(O)c4)nc(N4CCOCC4)nc32)cc1 [Compound 20, 3-[9-(4-Amino-benzyl)-2-morpholin-4-yl-9H-purin-6-yl]-phenol]
< 1000 nM | 1000 to 5000 nM | O=C(CCN1CCCCC1)Nc1ccc(Cn2cnc3c(-c4cccc(O)c4)nc(N4CCOCC4)nc32)cc1 [Compound 26, N-{4-[6-(3-Hydroxy-phenyl)-2-morpholin-4-yl-purin-9-ylmethyl]-phenyl}-3-piperidin-1-yl-propionamide]
1000 to 5000 nM | 1000 to 5000 nM | Oc1cccc(-c2nc(N3CCOCC3)nc3c2ncn3Cc2ccc(C(F)(F)F)cc2)c1 [Compound 30]
< 1000 nM | < 1000 nM | O=[N+]([O-])c1cccc(Cn2cnc3c(-c4cccc(O)c4)nc(N4CCOCC4)nc32)c1 [Compound 31]
< 1000 nM | 1000 to 5000 nM | CC(=O)Nc1ccc(Cn2cnc3c(-c4cccc(O)c4)nc(N4CCOCC4)nc32)cc1 [Compound 32]
< 1000 nM | > 5000 nM | CC(=O)Nc1ccc(Cn2cnc3c(-c4cccc(OC(C)=O)c4)nc(N4CCOCC4)nc32)cc1 [Compound 33]
< 1000 nM | 1000 to 5000 nM | CCNc1ccc(Cn2cnc3c(-c4cccc(O)c4)nc(N4CCOCC4)nc32)cc1 [Compound 34]
< 1000 nM | < 1000 nM | Nc1cccc(Cn2cnc3c(-c4cccc(O)c4)nc(N4CCOCC4)nc32)c1 [Compound 41]
< 1000 nM | 1000 to 5000 nM | CS(=O)(=O)Nc1ccc(Cn2cnc3c(-c4cccc(O)c4)nc(N4CCOCC4)nc32)cc1 [Compound 42]
> 5000 nM | > 5000 nM | CS(=O)(=O)Nc1cccc(-c2nc(N3CCOCC3)nc3c2ncn3Cc2ccccc2)c1 [Compound 43]
– | < 1000 nM | Oc1cccc(-c2nc(N3CCOCC3)nc3c2ncn3Cc2ccc3ccccc3c2)c1 [Compound 46]
< 1000 nM | 1000 to 5000 nM | CC(=O)Nc1cccc(Cn2cnc3c(-c4cccc(O)c4)nc(N4CCOCC4)nc32)c1 [Compound 49]
1000 to 5000 nM | > 5000 nM | CS(=O)(=O)Nc1cccc(Cn2cnc3c(-c4cccc(O)c4)nc(N4CCOCC4)nc32)c1 [Compound 55]

Reference: patent US20110009403A1, “2-MORPHOLINYLPURINES AS INHIBITORS OF PI3K” (S*BIO Pte Ltd., priority 2007, published 2011)
